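Values below derive from 48-hour exposures of cells grown in 96-well plates, with endpoints linearly interpolated between the two concentrations bracketing the appropriate inhibition level. At the GI50, growth is halved.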 The source made the active and inactive calls. Cut-off read from the data, not from the text of the source: active = GI50 up to about 1.1 µM and inactive = higher.
Key:
Experiment in all cases: inhibition of tumour cell growth, NCI panel, 48 h
RXF 393 = tested on: RXF 393
OVCAR-3 = tested on: OVCAR-3
CCRF-CEM = tested on: CCRF-CEM
UO-31 = tested on: UO-31
U-251 = tested on: U-251
HL-60 = tested on: HL-60
SK-MEL-2 = tested on: SK-MEL-2
M14 = tested on: M14
OVCAR-4 = tested on: OVCAR-4
SF-295 = tested on: SF-295
SF-268 = tested on: SF-268
LOX IMVI = tested on: LOX IMVI
NCI-H226 = tested on: NCI-H226
SK-MEL-28 = tested on: SK-MEL-28
K562 = tested on: K562
NCI-H460 = tested on: NCI-H460
IGROV-1 = tested on: IGROV-1
HT-29 = tested on: HT-29
MDA-MB-435 = tested on: MDA-MB-435
MDA-MB-231 = tested on: MDA-MB-231

SMILES	GI50 (RXF 393)	GI50 (OVCAR-3)	GI50 (CCRF-CEM)	GI50 (UO-31)	GI50 (U-251)	GI50 (HL-60)	GI50 (SK-MEL-2)	GI50 (M14)	GI50 (OVCAR-4)	GI50 (SF-295)	GI50 (SF-268)	GI50 (LOX IMVI)	GI50 (NCI-H226)	GI50 (SK-MEL-28)	GI50 (K562)	GI50 (NCI-H460)	GI50 (IGROV-1)	GI50 (HT-29)	GI50 (MDA-MB-435)	GI50 (MDA-MB-231)
COC1=CC(=O)C(O)=C(CC2(C)C(C)CCC3(C)C2CCCC3(C)C)C1=O (stereo not drawn)	2.31 µM (inactive)	5.43 µM (inactive)	1.91 µM (inactive)	4.49 µM (inactive)	2.44 µM (inactive)	2.58 µM (inactive)	3.06 µM (inactive)	2.18 µM (inactive)	4.18 µM (inactive)	2.89 µM (inactive)	4.37 µM (inactive)	4.6 µM (inactive)	2.77 µM (inactive)	4.43 µM (inactive)	2.7 µM (inactive)	1.88 µM (inactive)	5.2 µM (inactive)	10.3 µM (inactive)	–	–
CC(=O)O[C@]12CCCCCC1C1(O)C(O)CCC[C@H]12 (stereo partly drawn)	> 100 µM (inactive)	–	> 100 µM (inactive)	> 100 µM (inactive)	> 100 µM (inactive)	> 100 µM (inactive)	> 100 µM (inactive)	> 100 µM (inactive)	> 100 µM (inactive)	> 100 µM (inactive)	> 100 µM (inactive)	> 100 µM (inactive)	> 100 µM (inactive)	> 100 µM (inactive)	> 100 µM (inactive)	> 100 µM (inactive)	–	> 100 µM (inactive)	–	–
O[C@@]12Cc3c([nH]c4ccccc34)[C@@H]3Oc4c(-c5ccccc5)ccc5c4[C@@]31CCN(CC1CC1)[C@@H]2C5	–	1.49 µM (inactive)	2.92 µM (inactive)	1.74 µM (inactive)	1.71 µM (inactive)	2.06 µM (inactive)	1.84 µM (inactive)	1.82 µM (inactive)	2.71 µM (inactive)	1.69 µM (inactive)	3.42 µM (inactive)	1.89 µM (inactive)	–	1.71 µM (inactive)	2.33 µM (inactive)	1.72 µM (inactive)	4.07 µM (inactive)	1.77 µM (inactive)	1.77 µM (inactive)	–
CON(C)C(=O)C(C)NC(=O)OC(C)(C)C (stereo not drawn)	> 100 µM (inactive)	> 100 µM (inactive)	> 100 µM (inactive)	> 100 µM (inactive)	> 100 µM (inactive)	> 100 µM (inactive)	–	> 100 µM (inactive)	–	> 100 µM (inactive)	> 100 µM (inactive)	–	> 100 µM (inactive)	> 100 µM (inactive)	> 100 µM (inactive)	> 100 µM (inactive)	> 100 µM (inactive)	> 100 µM (inactive)	> 100 µM (inactive)	–
Cc1ccc(S(=O)(=O)N(/N=C/C=C/c2ccccc2)c2nnc(-c3ccccc3)c(-c3ccccc3)n2)cc1	19 µM (inactive)	20.1 µM (inactive)	21.9 µM (inactive)	5.86 µM (inactive)	32.1 µM (inactive)	14.9 µM (inactive)	17 µM (inactive)	20.8 µM (inactive)	9.82 µM (inactive)	19 µM (inactive)	25.9 µM (inactive)	21.5 µM (inactive)	18.3 µM (inactive)	26.3 µM (inactive)	15 µM (inactive)	21.7 µM (inactive)	34.6 µM (inactive)	0.619 µM (active)	–	–
Cc1csc2nc3[nH]ncc3c(=O)n12	–	> 100 µM (inactive)	> 100 µM (inactive)	81.8 µM (inactive)	> 100 µM (inactive)	–	> 100 µM (inactive)	> 100 µM (inactive)	> 100 µM (inactive)	> 100 µM (inactive)	> 100 µM (inactive)	> 100 µM (inactive)	40.6 µM (inactive)	> 100 µM (inactive)	> 100 µM (inactive)	> 100 µM (inactive)	> 100 µM (inactive)	> 100 µM (inactive)	> 100 µM (inactive)	> 100 µM (inactive)
CON(C)C(=O)[C@H]1C[C@@]1(C)CO	> 100 µM (inactive)	> 100 µM (inactive)	> 100 µM (inactive)	> 100 µM (inactive)	> 100 µM (inactive)	–	> 100 µM (inactive)	> 100 µM (inactive)	> 100 µM (inactive)	> 100 µM (inactive)	> 100 µM (inactive)	–	> 100 µM (inactive)	> 100 µM (inactive)	> 100 µM (inactive)	> 100 µM (inactive)	> 100 µM (inactive)	> 100 µM (inactive)	> 100 µM (inactive)	> 100 µM (inactive)
O=C(Nc1cccc(Cc2cccc(NC(=O)c3ccccc3)c2)c1)c1ccccc1	14.8 µM (inactive)	26.9 µM (inactive)	> 100 µM (inactive)	12.7 µM (inactive)	20.1 µM (inactive)	> 100 µM (inactive)	52.4 µM (inactive)	55.1 µM (inactive)	6.79 µM (inactive)	16.5 µM (inactive)	34 µM (inactive)	> 100 µM (inactive)	29 µM (inactive)	41.7 µM (inactive)	> 100 µM (inactive)	36.1 µM (inactive)	47.8 µM (inactive)	> 100 µM (inactive)	–	–
Cc1c(Cl)ccc2c1NC(=O)C2(O)CC(=O)c1cccc2ccccc12 (stereo not drawn)	99.3 µM (inactive)	78.3 µM (inactive)	40.3 µM (inactive)	> 100 µM (inactive)	44.7 µM (inactive)	13.3 µM (inactive)	> 100 µM (inactive)	> 100 µM (inactive)	26.2 µM (inactive)	> 100 µM (inactive)	> 100 µM (inactive)	96.6 µM (inactive)	> 100 µM (inactive)	> 100 µM (inactive)	85.5 µM (inactive)	59.7 µM (inactive)	> 100 µM (inactive)	43.4 µM (inactive)	–	–
O=S(=O)(O)C(O)/C=C/c1ccccc1 (stereo not drawn)	> 100 µM (inactive)	> 100 µM (inactive)	52.5 µM (inactive)	> 100 µM (inactive)	> 100 µM (inactive)	> 100 µM (inactive)	> 100 µM (inactive)	> 100 µM (inactive)	> 100 µM (inactive)	> 100 µM (inactive)	> 100 µM (inactive)	49.3 µM (inactive)	> 100 µM (inactive)	> 100 µM (inactive)	> 100 µM (inactive)	–	> 100 µM (inactive)	> 100 µM (inactive)	–	–
O=C(COc1ccc2c(=O)cc(-c3ccccc3)oc2c1)N1CCN(c2ccccc2)CC1	16.7 µM (inactive)	42.9 µM (inactive)	24.7 µM (inactive)	19.8 µM (inactive)	38.5 µM (inactive)	15.8 µM (inactive)	21.1 µM (inactive)	76.6 µM (inactive)	–	52.6 µM (inactive)	46.2 µM (inactive)	57.3 µM (inactive)	72.4 µM (inactive)	49.8 µM (inactive)	18 µM (inactive)	31.8 µM (inactive)	> 100 µM (inactive)	–	–	–
CC1(c2ccccc2Cl)C(C#N)C(=O)NC(=O)C1C#N (stereo not drawn)	27.9 µM (inactive)	17.8 µM (inactive)	30.1 µM (inactive)	27.5 µM (inactive)	–	21.6 µM (inactive)	49.9 µM (inactive)	42.6 µM (inactive)	33.3 µM (inactive)	32.7 µM (inactive)	35.8 µM (inactive)	40.1 µM (inactive)	27.5 µM (inactive)	37.8 µM (inactive)	27.4 µM (inactive)	36.6 µM (inactive)	64.1 µM (inactive)	36.6 µM (inactive)	–	–
O=c1[nH]c2nccn2c2c1SCCN2	> 100 µM (inactive)	> 100 µM (inactive)	> 100 µM (inactive)	–	> 100 µM (inactive)	> 100 µM (inactive)	> 100 µM (inactive)	> 100 µM (inactive)	> 100 µM (inactive)	> 100 µM (inactive)	> 100 µM (inactive)	> 100 µM (inactive)	> 100 µM (inactive)	> 100 µM (inactive)	> 100 µM (inactive)	> 100 µM (inactive)	> 100 µM (inactive)	> 100 µM (inactive)	> 100 µM (inactive)	–
O=C(OCN1C(=O)C2C3C=CC(C2C1=O)C1C2C(=O)N(COC(=O)C4CCCN4)C(=O)C2C31)C1CCCN1 (stereo not drawn)	> 76.6 µM (inactive)	> 100 µM (inactive)	21.8 µM (inactive)	> 100 µM (inactive)	> 45.8 µM (inactive)	22.1 µM (inactive)	> 31.6 µM (inactive)	71.6 µM (inactive)	> 58.3 µM (inactive)	> 82.6 µM (inactive)	> 51.3 µM (inactive)	35.9 µM (inactive)	> 100 µM (inactive)	> 83.9 µM (inactive)	> 67.9 µM (inactive)	22.6 µM (inactive)	> 91 µM (inactive)	67 µM (inactive)	–	–
CC1(C)C=N[N+]2(C)C3C=CC(CC3)C12 (stereo not drawn)	> 100 µM (inactive)	> 100 µM (inactive)	> 100 µM (inactive)	> 100 µM (inactive)	> 100 µM (inactive)	> 100 µM (inactive)	> 100 µM (inactive)	> 100 µM (inactive)	–	> 100 µM (inactive)	> 100 µM (inactive)	> 100 µM (inactive)	> 100 µM (inactive)	> 100 µM (inactive)	> 100 µM (inactive)	> 100 µM (inactive)	> 100 µM (inactive)	> 100 µM (inactive)	–	–
CC(=O)/C(=C\c1cccc([N+](=O)[O-])c1)C(=O)Nc1ccccc1C	> 100 µM (inactive)	> 100 µM (inactive)	31.2 µM (inactive)	> 100 µM (inactive)	91.2 µM (inactive)	20.2 µM (inactive)	> 100 µM (inactive)	95.7 µM (inactive)	56.4 µM (inactive)	> 100 µM (inactive)	> 100 µM (inactive)	60.1 µM (inactive)	> 100 µM (inactive)	> 100 µM (inactive)	72.4 µM (inactive)	> 100 µM (inactive)	> 100 µM (inactive)	95.1 µM (inactive)	–	–
